Laboratory results reported in ChEMBL document CHEMBL4431387, “Anti-adipogenic and anti-diabetic effects of cis-3',4'-diisovalerylkhellactone isolated from Peucedanum japonicum Thunb leaves in vitro” (Bioorg Med Chem Lett, 2016).
The source made the active and inactive calls. The rule behind the calls is not given here.

How the values were obtained:
3T3-L1 [1] = experiment: Cytotoxicity against mouse 3T3L1 cells assessed as reduction in cell viability at 10 to 50 uM after 48 hrs by SRB assay; type: cell-based; conditions: 3t3-l1, 48 h
3T3-L1 [2] = experiment: Cytotoxicity against mouse 3T3L1 cells assessed as reduction in cell viability at =<50 uM after 48 hrs by SRB assay; type: cell-based; conditions: 3t3-l1, 48 h
3T3-L1 [3] = experiment: Antiadipogenic activity in mouse 3T3L1 cells assessed as suppression of adipocyte differentiation at 20 uM after 8 days by oil red o-staining based spectrophotometric analysis; type: functional
3T3-L1 [4] = experiment: Antiadipogenic activity in mouse 3T3L1 cells assessed as suppression of adipocyte differentiation at 30 uM after 8 days by oil red o-staining based spectrophotometric analysis; type: functional
3T3-L1 [5] = experiment: Antiadipogenic activity in mouse 3T3L1 cells assessed as suppression of adipocyte differentiation at 50 uM after 8 days by oil red o-staining based spectrophotometric analysis; type: functional
3T3-L1 [6] = experiment: Antiadipogenic activity in differentiated mouse 3T3L1 cells assessed as reduction in triglyceride levels at 20 uM after 8 days by oil red o-staining based spectrophotometric analysis relative to control; type: functional; parameters: scale not given: the % may be the effect or the level left
3T3-L1 [7] = experiment: Antiadipogenic activity in differentiated mouse 3T3L1 cells assessed as reduction in triglyceride levels at 30 uM after 8 days by oil red o-staining based spectrophotometric analysis relative to control; type: functional; parameters: scale not given: the % may be the effect or the level left
3T3-L1 [8] = experiment: Antiadipogenic activity in differentiated mouse 3T3L1 cells assessed as reduction in triglyceride levels at 50 uM after 8 days by oil red o-staining based spectrophotometric analysis relative to control; type: functional; parameters: scale not given: the % may be the effect or the level left
3T3-L1 [9] = experiment: Induction of glucose uptake in differentiated mouse 3T3L1 cells at 30 uM preincubated for 20 mins followed by 2-deoxyglucose addition measured after 20 mins by fluorescence assay relative to control; type: functional
3T3-L1 [10] = experiment: Induction of glucose uptake in differentiated mouse 3T3L1 cells at 50 uM preincubated for 20 mins followed by 2-deoxyglucose addition measured after 20 mins by fluorescence assay relative to control; type: functional
[11] = biological target: Alpha glucosidase (Homo sapiens) (UniProt O43451+P10253+P14410+Q2M2H8); experiment: Inhibition of alpha-glucosidase (unknown origin) using […]-alpha-D-glucopyranoside as substrate at 10 to 50 uM preincubated for 10 mins followed by substrate addition measured after 5 mins; type: protein assay
[12] = biological target: T1, 5'-AMP-activated protein kinase (Mus musculus) (UniProt Q5EG47+Q8BRK8+Q6PAM0+O54950+Q91WG5+Q9R078+Q8BGM7); experiment: Induction of AMPK phosphorylation in mouse 3T3L1 cells at 30 uM by SDS-PAGE analysis; type: cell-based; conditions: 3T3-L1
[13] = biological target: T1, 5'-AMP-activated protein kinase (Mus musculus); experiment: Induction of AMPK phosphorylation in mouse 3T3L1 cells at 50 uM by SDS-PAGE analysis; type: cell-based; conditions: 3T3-L1
3T3-L1 [14] = experiment: Downregulation of C/EBPalpha mRNA expression in mouse 3T3L1 cells by qRT-PCR analysis; type: functional, cell-based
3T3-L1 [15] = experiment: Downregulation of PPARgamma mRNA expression in mouse 3T3L1 cells by qRT-PCR analysis; type: functional, cell-based
3T3-L1 [16] = experiment: Downregulation of SREBP-1c mRNA expression in mouse 3T3L1 cells by qRT-PCR analysis; type: functional, cell-based
3T3-L1 [17] = experiment: Downregulation of C/EBPalpha protein expression in mouse 3T3L1 cells by SDS-PAGE analysis; type: functional, cell-based
3T3-L1 [18] = experiment: Downregulation of PPARgamma protein expression in mouse 3T3L1 cells by SDS-PAGE analysis; type: functional, cell-based
3T3-L1 [19] = experiment: Downregulation of SREBP-1c protein expression in mouse 3T3L1 cells by SDS-PAGE analysis; type: functional, cell-based
3T3-L1 [20] = experiment: Antiadipogenic activity in mouse 3T3L1 cells assessed as suppression of adipocyte differentiation after 8 days by oil red o-staining based spectrophotometric analysis; type: functional, cell-based

inhibition [11]: Active
Activity [12]: 72%
Activity [13]: 103%
Structure (SMILES): CC(C)CC(=O)O[C@@H]1c2c(ccc3ccc(=O)oc23)OC(C)(C)[C@@H]1OC(=O)CC(C)C (relative stereo)
Activity (3T3-L1 [1]): Non-Toxic
Activity (3T3-L1 [2]): Non-Toxic
Activity (3T3-L1 [3]): 33%
Activity (3T3-L1 [4]): 71%
Activity (3T3-L1 [5]): 80%
Activity (3T3-L1 [6]): 44%
Activity (3T3-L1 [7]): 67%
Activity (3T3-L1 [8]): 65%
Activity (3T3-L1 [9]): 43%
Activity (3T3-L1 [10]): 57%
Activity (3T3-L1 [14]): Dose-dependent effect
Activity (3T3-L1 [15]): Dose-dependent effect
Activity (3T3-L1 [16]): Dose-dependent effect
Activity (3T3-L1 [17]): Dose-dependent effect
Activity (3T3-L1 [18]): Dose-dependent effect
Activity (3T3-L1 [19]): Dose-dependent effect
Activity (3T3-L1 [20]): Active
